Measurements as given in article PMC8962522, “Direct interaction of TrkA/CD44v3 is essential for NGF-promoted aggressiveness of breast cancer cells” (Journal of Experimental & Clinical Cancer Research : CR, 2022).
Entries after “also recorded” stand apart in the source; their conditions may differ.

Assays:
Assay type in all cases: cell-based
[1] = test system: TrkA/CD44v3 complex in SUM159-PT cells; test: PLA TrkA/CD44v3 complex formation in SUM159-PT cells; settings: triple negative; NGF 100 ng/ml
Procedure: Cells (10,000 cells per well) were grown on acid-washed eight-well glass slides (Thermo Scientific) in the appropriate medium supplemented with 10% FBS for 24 h. After NGF treatment, paraformaldehyde (PAF)-fixed cells were incubated with 4% bovine serum albumin (BSA) or 5% FBS (for 1 h at 20 °C), followed by overnight incubation with primary antibodies (rabbit anti-TrkA or rabbit anti-IgG + mouse anti-pan-CD44; mouse anti-CD44v3; mouse anti-CD44v6; mouse anti-IgG2a; mouse anti-IgG2b; or mouse anti-IgG1). PLA was performed following the manufacturer’s instructions in the assay kit (Duolink PLA; Sigma–Aldrich). To obtain the correct representation of the PLA signal for each condition, 30 fields per condition were observed using a fluorescence microscope (Eclipse TiU; Nikon, Japan). The PLA signals (red dots) were automatically quantified using ImageJ software (with an in-house-developed plug-in). […]
Fig. 7 The TrkA/CD44v3 complex is formed in PR-negative breast cancer cells and tumors. TrkA/CD44v3 complex formation was measured in SUM159-PT (triple negative—i.e., ERα-, PR-, and Her2-) cells (A), T47-D (luminal A—i.e., ERα+, PR+, and Her2-) cells (B), BT-474 (luminal B—ERα+, PR+, and Her2+) cells (C), HCC-1954 (Her2-like—ERα-, PR-, and Her2+) cells (D), and 150 tumor patient samples obtained from US BioMax (HBre-Duc150Sur01) (E, F) using the proximity ligation assay (PLA). […]

RhoA in MDA-MB-231 cells = test: AB-FRET RhoA activation, MDA-MB-231 with RhoA biosensor
Procedure: MDA-MB-231 native or KD cells were seeded (5000 cells/well; ovn, 37 °C) in a chambered coverglass system (Lab-Tek®) coated with a type I collagen matrix (100 μg/mL; Corning). These cells were transfected using the pBabe-puro-RhoA plasmid (0.15 μg; Addgene plasmid #12602) diluted in a buffer solution (JetOPTIMUS® buffer) and a transfection agent (TA; 10 min). The mixture was incorporated into the culture medium (4 h; 37 °C). Two to three hours before image acquisition, the cells expressing the RhoA biosensor were starved in fresh EMEM containing 0.1% FBS and no phenol red. […]
(§1) To further elucidate the mechanism of action of CD44v3 mimetic peptide 4, we studied its effect on the TrkA signaling pathway. […] Additionally, to confirm that this effect was independent of TrkA phosphorylation, we measured RhoA activation in MDA-MB-231 cells expressing dead TrkA kinase, which cannot be phosphorylated (Fig. 5D). […]
(§2) Fig. 5 CD44v3 is implicated in the phospho-TrkA-independent activation of RhoA GTPase. Phosphorylation of TrkA was measured in the presence of a scramble peptide or CD44v3 mimetic peptide 4 (P4) in the presence or absence of NGF (A). […] Phosphorylation of TrkA and downstream Akt in wild-type MDA-MB-231 and MDA-MB-231 cells expressing kinase-dead TrkA, as determined by western blotting (D). […]

[2] = test system: RhoA in MDA-MB-231 cells expressing kinase-dead TrkA; test: Ratiometric FRET RhoA activation, kinase-dead TrkA cells; settings: for relocation of activated RhoA to the migration front / local RhoA activation, in words: 25 min NGF, relocation observed with scramble peptide
Procedure: MDA-MB-231 native or KD cells were seeded (5000 cells/well; ovn, 37 °C) in a chambered coverglass system (Lab-Tek®) coated with a type I collagen matrix (100 μg/mL; Corning). These cells were transfected using the pBabe-puro-RhoA plasmid (0.15 μg; Addgene plasmid #12602) diluted in a buffer solution (JetOPTIMUS® buffer) and a transfection agent (TA; 10 min). The mixture was incorporated into the culture medium (4 h; 37 °C). Two to three hours before image acquisition, the cells expressing the RhoA biosensor were starved in fresh EMEM containing 0.1% FBS and no phenol red. During image acquisition, the cells were maintained at 37 °C and with 5% CO2 in an incubation chamber installed under a microscope. Images were collected using a ZEISS LSM 880 confocal microscope with a plan-apochromat 63×/1.4 oil differential interference contrast (DIC) objective. The argon laser was tuned to emit 458 nm and 514 nm laser lines through a 470 to 500 nm bandpass emission filter (BP470–500) for CFP detection and a 530 nm longpass emission filter (LP530) for YFP detection. The emission of the CFP, FRET and YFP channels was recorded. The fluorescence emission ratios were computed using ImageJ software, which was also used to generate a report showing the FRET efficiency and intensity signal for each channel.
as §1, §2

| Substance | effect on TrkA/CD44v3 complex formation (PLA) in SUM159-PT cells [1] | Mean donor peak (AB-FRET, RhoA activation), with NGF (RhoA in MDA-MB-231 cells) | NGF-induced FRET signal (RhoA activity), in words (RhoA in MDA-MB-231 cells; statement: NGF increased the signal with scramble peptide, not with peptide 4, listed as CD44v3 mimetic peptide 4) | relocation of activated RhoA to the migration front / local RhoA activation, in words ([2]; not with peptide 4, listed as CD44v3 mimetic peptide 4) | relocation of activated RhoA to the migration front / local RhoA activation, in words ([2]; not with peptide 4, listed as P4) | NGF-induced increase in proportion of active RhoA, in words ([2]; 45 min NGF, statement: increased with scramble peptide, not with peptide 4) |
| --- | --- | --- | --- | --- | --- | --- |
| NGF: recombinant human β-NGF (Alomone Labs, Israel) | NGF induction of CD44v3/TrkA complex formation was observed in SUM-159PT (TN) and HCC-1954 (Her2) cells | – | – | – | – | – |
| IDDDEDFISST [Peptide 4, mimetic peptide 4 (…) corresponding to the C-terminal region of CD44v3] | – | 1.23 | NGF increased the FRET signal in the presence of the scramble peptide but not with CD44v3 mimetic peptide 4; also recorded: inhibits TrkA phosphorylation-independent RhoA activation induced by NGF | relocation of activated RhoA to the migration front of the control cells with the scramble peptide after 25 min of NGF treatment but not with CD44v3 mimetic peptide 4 | impedes local RhoA activation independent of TrkA phosphorylation | NGF increased the proportion of active RhoA after 45 min in the presence of the scramble peptide (Fig. 5E) but not CD44v3 mimetic peptide 4 |
